Consider nine compounds from patent US9593084B2 (Parion Sciences, Inc., priority 2012, dated 2017).

Marks after values point to notes of the source that are not given here.

In assay [1] the target is T1, epithelial sodium channel (Canis lupus familiaris, UniProt A0A8I3MKE6+A0A8I3Q679+Q95165).
T1 construct: endogenous in cells; host or cells: primary canine bronchial epithelial cells cultured at air-liquid interface
T1 sequence (A0A8I3Q679 1-649): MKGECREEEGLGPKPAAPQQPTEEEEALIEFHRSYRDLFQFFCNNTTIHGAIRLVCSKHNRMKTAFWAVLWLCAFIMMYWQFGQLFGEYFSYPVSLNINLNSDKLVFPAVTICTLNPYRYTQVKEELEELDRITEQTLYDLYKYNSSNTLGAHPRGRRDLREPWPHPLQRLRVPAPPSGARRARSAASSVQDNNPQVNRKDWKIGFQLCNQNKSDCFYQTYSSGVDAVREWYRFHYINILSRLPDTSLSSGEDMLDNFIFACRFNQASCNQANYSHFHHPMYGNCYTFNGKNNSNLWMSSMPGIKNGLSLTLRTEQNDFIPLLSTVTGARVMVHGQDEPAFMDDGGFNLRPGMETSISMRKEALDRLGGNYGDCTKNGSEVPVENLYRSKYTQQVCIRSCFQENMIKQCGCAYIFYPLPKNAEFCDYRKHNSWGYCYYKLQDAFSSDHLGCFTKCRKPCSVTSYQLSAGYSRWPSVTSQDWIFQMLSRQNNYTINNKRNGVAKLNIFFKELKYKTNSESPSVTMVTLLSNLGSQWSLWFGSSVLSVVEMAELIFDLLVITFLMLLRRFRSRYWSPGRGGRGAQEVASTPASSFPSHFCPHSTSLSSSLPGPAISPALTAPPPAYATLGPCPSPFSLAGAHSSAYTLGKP
T1 sequence (Q95165 1-641): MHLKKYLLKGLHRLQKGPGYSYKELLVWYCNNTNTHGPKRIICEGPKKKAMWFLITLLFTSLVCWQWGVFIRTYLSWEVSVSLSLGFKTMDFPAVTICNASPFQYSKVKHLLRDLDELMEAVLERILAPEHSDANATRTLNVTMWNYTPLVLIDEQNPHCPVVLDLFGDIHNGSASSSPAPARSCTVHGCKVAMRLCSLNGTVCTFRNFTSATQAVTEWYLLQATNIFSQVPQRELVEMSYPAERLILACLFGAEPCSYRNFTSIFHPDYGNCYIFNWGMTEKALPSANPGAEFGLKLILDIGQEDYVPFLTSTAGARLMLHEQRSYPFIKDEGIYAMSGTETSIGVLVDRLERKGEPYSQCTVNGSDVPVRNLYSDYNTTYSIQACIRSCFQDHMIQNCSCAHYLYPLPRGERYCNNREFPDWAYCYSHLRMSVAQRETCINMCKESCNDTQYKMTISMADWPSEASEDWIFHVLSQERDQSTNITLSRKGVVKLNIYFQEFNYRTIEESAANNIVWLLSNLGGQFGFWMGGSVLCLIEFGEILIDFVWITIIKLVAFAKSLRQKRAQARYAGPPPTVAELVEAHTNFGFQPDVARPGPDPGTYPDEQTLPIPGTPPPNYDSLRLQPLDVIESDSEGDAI
T1 sequence (A0A8I3MKE6 1-646): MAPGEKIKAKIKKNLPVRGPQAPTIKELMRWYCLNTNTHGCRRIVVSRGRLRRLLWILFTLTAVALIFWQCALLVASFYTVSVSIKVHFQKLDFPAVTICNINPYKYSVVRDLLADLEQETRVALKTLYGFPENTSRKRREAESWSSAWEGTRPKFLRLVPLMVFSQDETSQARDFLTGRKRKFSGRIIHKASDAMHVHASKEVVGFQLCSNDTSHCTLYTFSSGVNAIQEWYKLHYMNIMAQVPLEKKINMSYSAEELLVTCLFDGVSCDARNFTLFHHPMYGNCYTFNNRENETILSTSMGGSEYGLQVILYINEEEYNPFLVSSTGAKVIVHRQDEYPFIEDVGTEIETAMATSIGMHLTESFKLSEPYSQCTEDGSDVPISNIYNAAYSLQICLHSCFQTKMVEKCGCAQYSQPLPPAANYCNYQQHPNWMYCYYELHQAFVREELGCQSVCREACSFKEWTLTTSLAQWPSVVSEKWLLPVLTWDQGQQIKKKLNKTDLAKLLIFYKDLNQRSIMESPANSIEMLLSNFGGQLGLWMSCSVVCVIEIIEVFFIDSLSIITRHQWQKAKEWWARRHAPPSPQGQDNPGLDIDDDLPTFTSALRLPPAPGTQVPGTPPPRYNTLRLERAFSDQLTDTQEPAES
The assay can be described thus: Inhibition of short-circuit current (ISC) in airway epithelial monolayers in Ussing chambers. It counts as cell-based, canine. The conditions noted are these: canine bronchial epithelial cells, short-circuit current; read-out: Potency of Sodium Channel Blockade IC50. As for the experimental part:
One assay used to assess mechanism of action and/or potency of the compounds of the present invention involves the determination of lumenal drug inhibition of airway epithelial sodium currents measured under short circuit current (ISC) using airway epithelial monolayers mounted in Using chambers. Cells obtained from freshly excised human, dog, sheep or rodent airways are seeded onto porous 0.4 micron Snapwelff Inserts (CoStar), cultured at air-liquid interface (ALI) conditions in hormonally defined media, and assayed for sodium transport activity (ISC) while bathed in Krebs Bicarbonate Ringer (KBR) in Using chambers. All test drug additions are to the lumenal bath with half-log dose addition protocols (from 1×10^−11 M to 3×10^−5 M), and the cumulative change in ISC (inhibition) recorded. All drugs are prepared in dimethyl sulfoxide as stock solutions at a concentration of 1×10^−2 M and stored at −20° C. […] After the maximal concentration ([…]) is administered, the lumenal bath is exchanged three times with fresh drug-free KBR solution, and the resultant ISC measured after each wash for approximately 5 minutes in duration. Reversibility is defined as the percent return to the baseline value for sodium current after the third wash. All data from the voltage clamps are collected via a computer interface and analyzed off-line.
Dose-effect relationships for all compounds are considered and analyzed by the Prism 3.0 program.

The test system of assay [2] is Sheep MCC. The assay can be described thus: Mucociliary clearance (MCC) studies in sheep. It counts as in vivo. The following applies: sheep. How it is done:
The animal model that has been used most often to measure changes in MCC is the sheep model. The effect of compounds for enhancing mucociliary clearance (MCC) can be measured using an in vivo model described by Sabater et al., Journal of Applied Physiology, 1999, pp. 2191-2196, incorporated herein by reference.
In these studies, adult sheep were restrained and nasally intubated with an endotracheal tube. Aerosolized test articles were administered over 10-15 minutes to sheep. Radiolabeled ^99mTc-sulfur colloid (TSC, 3.1 mg/mL; containing approximately 20 mCi) was then administered at a specified time four or eight hours after test article. The radiolabeled aerosol was administered through the endotracheal tube for about 5 minutes. The sheep were then extubated, and total radioactive counts in the lung were measured every 5 minutes for a 1-hour observation period. The rate of radiolabel clearance from the lung is representative of the MCC rate in the animal. The advantage of this system is that it closely simulates the human lung environment. The model also allows for the collection of simultaneous PK/PD information through plasma and urine sampling over the test period. There are also several techniques to measure the drug concentrations on the airway surface during the MCC measurements. These include the collection of exhaled breath condensates or a filter paper method to obtain ASL via bronchoscopy.
The ovine model described above was used to evaluate the in vivo effects (efficacy/durability) of aerosol-delivered test agent on MCC. Treatments consisting of either 4 mL of test agent or test agent in combination with HS were tested. To determine if combining HS with test agent enhanced MCC, HS was administered immediately following test agent administration. Test solutions were aerosolized using a Raindrop nebulizer at a flowrate of eight liters per minute and connected to a dosimetry system consisting of a solenoid valve and a source of compressed air (20 psi). The deposited dose of drug in sheep lungs after an aerosol administration using the Raindrop nebulizer is estimated to be 8-15% of the dose. Using a Raindrop nebulizer, radiolabeled TSC was administered over approximately 3 minutes either 4 or 8 hours after drug treatment to evaluate efficacy/durability. Radioactive counts were measured in a central region in the right lung at 5 min intervals for one hour with a gamma camera. Three methods of analysis were utilized, 1) initial rate of clearance (slope) over the first 30 min fitted using linear regression 2) area under the curve for % clearance over time over one hour, and 3) the maximum clearance obtained in one hour.

The mark [3] stands for this setting: aerosol, 0.24 nmol/kg (3 μM), MCC at 8 h post-dose.

The IC50 is the midpoint of a concentration-inhibition curve.

`N=C(NCCCCc1ccc(C[C@H](N)C(=O)O)c2ccccc12)NC(=O)c1nc(Cl)c(N)nc1N` [Compound 16, (S)-2-amino-3-(4-(4-(3-(3,5-diamino-6-chloropyrazine-2-carbonyl)guanidino)butyl)naphthalen-1-yl)propanoic acid]: the IC50 in assay [1] amounted to 79.6 nM.

For `CN(C)CCCc1ccc(NC(=O)[C@@H](N)Cc2ccc(CCCCNC(=N)NC(=O)c3nc(Cl)c(N)nc3N)c3ccccc23)cc1` [Compound 23, (S)-3,5-diamino-N—(N-(4-(4-(2-amino-3-(4-(3-(dimethylamino)propyl)phenylamino)-3-oxopropyl)naphthalen-1-yl)butyl)carbamimidoyl)-6-chloropyrazine-2-carboxamide], in assay [1], the IC50 is 20.7 nM. Still for that read-out and setting: as for `CCCCCCN(CCCc1ccc(NC(=O)[C@@H](N)Cc2ccc(CCCCNC(=N)NC(=O)c3nc(Cl)c(N)nc3N)c3ccccc23)cc1)C[C@H](O)[C@@H](O)[C@H](O)[C@H](O)CO` [Compound 28, 3,5-diamino-N—(N-(4-(4-((S)-2-amino-3-(4-(3-(hexyl((2S,3R,4R,5R)-2,3,4,5,6-pentahydroxyhexyl)amino)propyl)phenylamino)-3-oxopropyl)naphthalen-1-yl)butyl)carbamimidoyl)-6-chloropyrazine-2-carboxamide], the figure is 7.4 nM. Still for that read-out and setting: as for `N=C(NCCCCc1ccc(C[C@H](N)C(=O)Nc2ccc(CCCNC[C@H](O)[C@@H](O)[C@H](O)[C@H](O)CO)cc2)c2ccccc12)NC(=O)c1nc(Cl)c(N)nc1N` [Compound 38, 3,5-diamino-N—(N-(4-(4-((S)-2-amino-3-oxo-3-(4-(3-((2S,3R,4R,5R)-2,3,4,5,6-pentahydroxyhexylamino)propyl)phenylamino)propyl)naphthalen-1-yl)butyl)carbamimidoyl)-6-chloropyrazine-2-carboxamide], the figure is 25.4 nM. Still for that read-out and setting: as for `CN(C)CCCCCCc1ccc(NC(=O)[C@@H](N)Cc2ccc(CCCCNC(=N)NC(=O)c3nc(Cl)c(N)nc3N)c3ccccc23)cc1` [Compound 43, (S)-3,5-diamino-N—(N-(4-(4-(2-amino-3-(4-(6-(dimethylamino)hexyl)phenylamino)-3-oxopropyl)naphthalen-1-yl)butyl)carbamimidoyl)-6-chloropyrazine-2-carboxamide], the figure is 50.1 nM; as for `N=C(NCCCCc1ccc(C[C@H](N)C(=O)Nc2ccc(CCCCCCNC[C@H](O)[C@@H](O)[C@H](O)[C@H](O)CO)cc2)c2ccccc12)NC(=O)c1nc(Cl)c(N)nc1N` [Compound 53, 3,5-diamino-N—(N-(4-(4-((S)-2-amino-3-oxo-3-(4-(6-((2S,3R,4R,5R)-2,3,4,5,6-pentahydroxyhexylamino)hexyl)phenylamino)propyl)naphthalen-1-yl)butyl)carbamimidoyl)-6-chloropyrazine-2-carboxamide], 15.5 nM; as for `CCCCCCN(CCCCCCc1ccc(NC(=O)[C@@H](N)Cc2ccc(CCCCNC(=N)NC(=O)c3nc(Cl)c(N)nc3N)c3ccccc23)cc1)C[C@H](O)[C@@H](O)[C@H](O)[C@H](O)CO` [Compound 58, 3,5-diamino-N—(N-(4-(4-((S)-2-amino-3-(4-(6-(hexyl((2S,3R,4R,5R)-2,3,4,5,6-pentahydroxyhexyl)amino)hexyl)phenylamino)-3-oxopropyl)naphthalen-1-yl)butyl)carbamimidoyl)-6-chloropyrazine-2-carboxamide], 10.6 nM. For `N=C(NCCCCc1ccc2cc(C[C@H](N)C(=O)O)ccc2c1)NC(=O)c1nc(Cl)c(N)nc1N` [Compound 80, (S)-2-amino-3-(6-(4-(3-(3,5-diamino-6-chloropyrazine-2-carbonyl)guanidino)butyl)naphthalen-2-yl)propanoic acid], the IC50 in assay [1] was determined as 19.4 nM. As to `N=C(NCCCCc1ccc(C[C@@H](N)C(=O)Nc2ccc(CCCN(C[C@H](O)[C@@H](O)[C@H](O)[C@H](O)CO)C[C@H](O)[C@@H](O)[C@H](O)[C@H](O)CO)cc2)c2ccccc12)NC(=O)c1nc(Cl)c(N)nc1N` [Compound 152, 3,5-diamino-N—(N-(4-(4-((R)-2-amino-3-(4-(3-(bis((2S,3R,4R,5R)-2,3,4,5,6-pentahydroxyhexyl)amino)propyl)phenylamino)-3-oxopropyl)naphthalen-1-yl)butyl)carbamimidoyl)-6-chloropyrazine-2-carboxamide], the “duration of action on MCC vs. vehicle” value in assay [2] (8 hours post dose) is “enhanced duration action of MCC vs. vehicle”. Besides, in assay [2] (setting [3]), the “AUC (% Cl-h)” value is given as 17.4* (4) % Cl-h and the “Initial Slope (8.0-8.5 h)” value is given as 37.5* (4).
